The structures appear in SMILES notation.

Assay [1] has as its target T1, Endothelin receptor type B (Rattus norvegicus) (UniProt P21451).
T1 sequence (whole entry): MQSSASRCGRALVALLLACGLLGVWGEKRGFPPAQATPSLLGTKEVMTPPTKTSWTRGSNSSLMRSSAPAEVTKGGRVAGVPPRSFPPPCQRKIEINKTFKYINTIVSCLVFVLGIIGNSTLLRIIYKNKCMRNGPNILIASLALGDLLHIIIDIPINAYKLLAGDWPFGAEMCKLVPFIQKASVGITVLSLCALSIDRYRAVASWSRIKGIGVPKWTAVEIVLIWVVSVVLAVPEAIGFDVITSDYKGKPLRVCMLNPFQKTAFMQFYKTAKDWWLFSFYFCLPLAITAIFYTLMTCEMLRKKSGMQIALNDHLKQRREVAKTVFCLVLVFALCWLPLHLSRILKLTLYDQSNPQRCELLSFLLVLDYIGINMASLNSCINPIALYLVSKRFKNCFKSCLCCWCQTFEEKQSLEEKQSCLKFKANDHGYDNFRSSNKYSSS
The assay can be described thus: Concentration required to produce 50% inhibition of binding against ET B receptor obtained from rat brain membrane.

For assay [2], the target named is T2, Endothelin-1 receptor (Rattus norvegicus) (UniProt P26684).
T2 sequence (whole entry): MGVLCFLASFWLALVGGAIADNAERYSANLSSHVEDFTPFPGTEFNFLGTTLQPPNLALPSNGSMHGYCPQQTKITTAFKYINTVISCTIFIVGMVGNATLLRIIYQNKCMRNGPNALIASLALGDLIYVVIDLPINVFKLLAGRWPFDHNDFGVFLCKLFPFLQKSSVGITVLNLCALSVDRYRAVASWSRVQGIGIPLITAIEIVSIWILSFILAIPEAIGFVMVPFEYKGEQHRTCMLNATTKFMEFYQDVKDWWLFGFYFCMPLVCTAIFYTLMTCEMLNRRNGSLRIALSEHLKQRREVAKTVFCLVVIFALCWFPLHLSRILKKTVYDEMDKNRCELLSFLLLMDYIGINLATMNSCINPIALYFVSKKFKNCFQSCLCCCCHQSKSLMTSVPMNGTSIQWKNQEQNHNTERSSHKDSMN
The assay can be described thus: Concentration required to produce 50% inhibition of binding against ET A receptor obtained from rat thoracic aortic membrane.

Take `CC[C@@H](C)[C@H](NC(=O)[C@H](CC(=O)O)NC(=O)[C@H](CC(C)C)NC(=O)[C@H](Cc1c[nH]cn1)NC(=O)[C@H](CS)NC(=O)[C@H](Cc1ccccc1)NC(=O)[C@H](Cc1ccc(O)cc1)NC(=O)[C@@H](NC(=O)[C@H](CS)NC(=O)[C@H](CCC(=O)O)NC(=O)[C@H](CCCCN)NC(=O)[C@H](CC(=O)O)NC(=O)[C@H](CCSC)NC(=O)[C@H](CC(C)C)NC(=O)[C@H](CO)NC(=O)[C@H](CO)NC(=O)[C@H](CS)NC(=O)[C@H](CO)NC(=O)[C@@H](N)CS)C(C)C)C(=O)N[C@@H](C)C(=O)N[C@@H](Cc1c[nH]c2ccccc12)C(=O)O`: the results for the pIC50 in assay [1] and in assay [2] were 9.4 and 7.53, respectively.

As to `CC[C@@H](C)[C@H](NC(=O)[C@H](CC(=O)O)NC(=O)[C@H](CC(C)C)NC(=O)[C@H](Cc1c[nH]cn1)NC(=O)[C@H](CS)NC(=O)[C@H](Cc1ccccc1)NC(=O)[C@H](Cc1ccc(O)cc1)NC(=O)[C@@H](NC(=O)[C@H](CS)NC(=O)[C@H](CCC(=O)O)NC(=O)[C@H](CCCCN)NC(=O)[C@H](CC(=O)O)NC(=O)[C@H](CCSC)NC(=O)[C@H](CC(C)C)NC(=O)[C@H](CO)NC(=O)[C@H](CO)NC(=O)[C@H](CS)NC(=O)[C@H](CO)NC(=O)[C@@H](N)CS)C(C)C)C(=O)N[C@H](C(=O)N[C@@H](Cc1c[nH]c2ccccc12)C(=O)O)c1ccccc1`, the pIC50 in assay [1] worked out at 9.76; in assay [2] it was 8.89.

On to `CC[C@@H](C)[C@H](NC(=O)[C@H](CC(=O)O)NC(=O)[C@H](CC(C)C)NC(=O)[C@H](Cc1c[nH]cn1)NC(=O)[C@H](CS)NC(=O)[C@H](Cc1ccccc1)NC(=O)[C@H](Cc1ccc(O)cc1)NC(=O)[C@@H](NC(=O)[C@H](CS)NC(=O)[C@H](CCC(=O)O)NC(=O)[C@H](CCCCN)NC(=O)[C@H](CC(=O)O)NC(=O)[C@H](CCSC)NC(=O)[C@H](CC(C)C)NC(=O)[C@H](CO)NC(=O)[C@H](CO)NC(=O)[C@H](CS)NC(=O)[C@H](CO)NC(=O)[C@@H](N)CS)C(C)C)C(=O)N[C@H](C)C(=O)N[C@@H](Cc1c[nH]c2ccccc12)C(=O)O`, for which the pIC50 was found to be 7.96 in assay [1] and 5.77 in assay [2].
